Source: ChEMBL document CHEMBL3885861, “Open TG-GATES”

Species: Rattus norvegicus
Assay: Open TG-GATES - Regimen: Single
Type: toxicity, organism-based, Sprague-Dawley
Set-up: regimen Single, gender Male, age 6 weeks
Settings: in vivo, po, 0 mg/kg, route gavage, dose level Control; for APTT / Bas / Eos / Fbg / Hb / Ht / Lym / MCH / MCHC / MCV / Mono / Neu / PT / Plat / RBC / Ret / WBC: tissue Blood; for KIDNEY_L / KIDNEY_R / KIDNEY_TOTAL: tissue Kidney; for LIVER: tissue Liver; for A/G / ALP / ALT / AST / BUN / CRE / Ca / Cl / DBIL / GLC / IP / K / LDH / Na / PL / RALB / TBIL / TC / TG / TP / gamma-GTP: tissue Plasma

With `COC1=CC(=O)C[C@@H](C)[C@]12Oc1c(Cl)c(OC)cc(OC)c1C2=O` [GRISEOFULVIN] the TERMINAL_BW (3 h) was 211.3 g, the APTT (3 h) was 21.6 s and the Bas (3 h) was 0%. For the same molecule, the Eos (3 h) was 0.4%, the Fbg (3 h) was 224.4 mg/dL and the Hb (3 h) was 13.4 g/dL. It also gave a Ht (3 h) of 39.4%, a Lym (3 h) of 76% and an MCH (3 h) of 21.7 pg. For the same molecule, the MCHC (3 h) was 34.1%, the MCV (3 h) was 63.5 fL and the Mono (3 h) was 3%. For the same molecule, the Neu (3 h) was 19.6%, the PT (3 h) was 12.9 s and the Plat (3 h) was 119.6 x10_4/uL. The RBC (3 h) was 620.8 x10_4/ul, the Ret (3 h) was 7.4% and the WBC (3 h) was 103.5 x10_2/uL. For the same molecule, the KIDNEY_L (3 h) was 1 g, the KIDNEY_R (3 h) was 1 g and the KIDNEY_TOTAL (3 h) was 1.9 g. The LIVER (3 h) was 9.8 g, the A/G (3 h) was 1.9 and the ALP (3 h) was 1043.6 IU/L. It also gave an ALT (3 h) of 45.2 IU/L, an AST (3 h) of 71 IU/L and a BUN (3 h) of 10.8 mg/dL. It also gave a CRE (3 h) of 0.3 mg/dL, a Ca (3 h) of 10.8 mg/dL and a Cl (3 h) of 104.4 meq/L. The DBIL (3 h) was 0.2 mg/dL, the GLC (3 h) was 195.4 mg/dL and the IP (3 h) was 9.3 mg/dL. The K (3 h) was 4 meq/L, the LDH (3 h) was 129.8 IU/L and the Na (3 h) was 141.4 meq/L. The PL (3 h) was 167.6 mg/dL, the RALB (3 h) was 3.5 g/dL and the TBIL (3 h) was 0.2 mg/dL. For the same molecule, the TC (3 h) was 85.8 mg/dL, the TG (3 h) was 97.4 mg/dL and the TP (3 h) was 5.4 g/dL. The gamma-GTP (3 h) was 1.4 IU/L, the TERMINAL_BW (6 h) was 210.2 g and the APTT (6 h) was 18.8 s. For the same molecule, the Bas (6 h) was 0%, the Eos (6 h) was 0.8% and the Fbg (6 h) was 231.8 mg/dL. For the same molecule, the Hb (6 h) was 13.8 g/dL, the Ht (6 h) was 41.1% and the Lym (6 h) was 79.4%. For the same molecule, the MCH (6 h) was 20.9 pg, the MCHC (6 h) was 33.6% and the MCV (6 h) was 62.1 fL. For the same molecule, the Mono (6 h) was 3.2%, the Neu (6 h) was 16% and the PT (6 h) was 12.7 s. The Plat (6 h) was 132.8 x10_4/uL, the RBC (6 h) was 662.4 x10_4/ul and the Ret (6 h) was 7.1%. It also gave a WBC (6 h) of 107.8 x10_2/uL, a KIDNEY_L (6 h) of 1 g and a KIDNEY_R (6 h) of 1 g. The KIDNEY_TOTAL (6 h) was 1.9 g, the LIVER (6 h) was 9 g and the A/G (6 h) was 1.7. It also gave an ALP (6 h) of 1097.4 IU/L, an ALT (6 h) of 34.6 IU/L and an AST (6 h) of 67 IU/L. For the same molecule, the BUN (6 h) was 8.6 mg/dL, the CRE (6 h) was 0.3 mg/dL and the Ca (6 h) was 10.7 mg/dL. For the same molecule, the Cl (6 h) was 103.4 meq/L, the DBIL (6 h) was 0.098 mg/dL and the GLC (6 h) was 209.6 mg/dL. It also gave an IP (6 h) of 10 mg/dL, a K (6 h) of 3.9 meq/L and an LDH (6 h) of 157.4 IU/L. The Na (6 h) was 141.4 meq/L, the PL (6 h) was 138.8 mg/dL and the RALB (6 h) was 3.4 g/dL. It also gave a TBIL (6 h) of 0.2 mg/dL, a TC (6 h) of 73.4 mg/dL and a TG (6 h) of 63.2 mg/dL. The TP (6 h) was 5.4 g/dL, the gamma-GTP (6 h) was 1.2 IU/L and the TERMINAL_BW (9 h) was 209.9 g. The APTT (9 h) was 18.2 s, the Bas (9 h) was 0% and the Eos (9 h) was 1%. It also gave a Fbg (9 h) of 226 mg/dL, a Hb (9 h) of 13.5 g/dL and a Ht (9 h) of 39.7%. For the same molecule, the Lym (9 h) was 72.6%, the MCH (9 h) was 21.4 pg and the MCHC (9 h) was 33.9%. It also gave an MCV (9 h) of 63.1 fL, a Mono (9 h) of 2.4% and a Neu (9 h) of 23.8%. It also gave a PT (9 h) of 12.9 s, a Plat (9 h) of 117.6 x10_4/uL and an RBC (9 h) of 628.8 x10_4/ul. It also gave a Ret (9 h) of 7.4%, a WBC (9 h) of 73.2 x10_2/uL and a KIDNEY_L (9 h) of 0.9 g. For the same molecule, the KIDNEY_R (9 h) was 0.9 g, the KIDNEY_TOTAL (9 h) was 1.9 g and the LIVER (9 h) was 8.3 g. The A/G (9 h) was 1.7, the ALP (9 h) was 1130.6 IU/L and the ALT (9 h) was 32.4 IU/L. It also gave an AST (9 h) of 59.8 IU/L, a BUN (9 h) of 11 mg/dL and a CRE (9 h) of 0.4 mg/dL. For the same molecule, the Ca (9 h) was 10.4 mg/dL, the Cl (9 h) was 103.6 meq/L and the DBIL (9 h) was 0.078 mg/dL. The GLC (9 h) was 206 mg/dL, the IP (9 h) was 10.1 mg/dL and the K (9 h) was 4 meq/L. For the same molecule, the LDH (9 h) was 100.8 IU/L, the Na (9 h) was 141.8 meq/L and the PL (9 h) was 148.2 mg/dL. The RALB (9 h) was 3.5 g/dL, the TBIL (9 h) was 0.1 mg/dL and the TC (9 h) was 79.8 mg/dL. For the same molecule, the TG (9 h) was 41.2 mg/dL, the TP (9 h) was 5.5 g/dL and the gamma-GTP (9 h) was 1.2 IU/L. The TERMINAL_BW (24 h) was 224 g, the APTT (24 h) was 18.9 s and the Bas (24 h) was 0%. The Eos (24 h) was 1%, the Fbg (24 h) was 214.4 mg/dL and the Hb (24 h) was 13 g/dL. The Ht (24 h) was 39.3%, the Lym (24 h) was 79.2% and the MCH (24 h) was 21.6 pg. The MCHC (24 h) was 33%, the MCV (24 h) was 65.4 fL and the Mono (24 h) was 3%. It also gave a Neu (24 h) of 16.6%, a PT (24 h) of 12.8 s and a Plat (24 h) of 111.8 x10_4/uL. For the same molecule, the RBC (24 h) was 601.4 x10_4/ul, the Ret (24 h) was 8% and the WBC (24 h) was 72.9 x10_2/uL. It also gave a KIDNEY_L (24 h) of 1.1 g, a KIDNEY_R (24 h) of 1 g and a KIDNEY_TOTAL (24 h) of 2.1 g. The LIVER (24 h) was 11.1 g, the A/G (24 h) was 1.7 and the ALP (24 h) was 884.4 IU/L. The ALT (24 h) was 37.6 IU/L, the AST (24 h) was 61.8 IU/L and the BUN (24 h) was 16 mg/dL. For the same molecule, the CRE (24 h) was 0.4 mg/dL, the Ca (24 h) was 10.9 mg/dL and the Cl (24 h) was 104 meq/L. For the same molecule, the DBIL (24 h) was 0.1 mg/dL, the GLC (24 h) was 208.8 mg/dL and the IP (24 h) was 7.5 mg/dL. For the same molecule, the K (24 h) was 4.2 meq/L, the LDH (24 h) was 148.2 IU/L and the Na (24 h) was 141.4 meq/L. For the same molecule, the PL (24 h) was 149 mg/dL, the RALB (24 h) was 3.4 g/dL and the TBIL (24 h) was 0.2 mg/dL. For the same molecule, the TC (24 h) was 78 mg/dL, the TG (24 h) was 119.8 mg/dL and the TP (24 h) was 5.4 g/dL. The gamma-GTP (24 h) was 1.2 IU/L.
